Experimental data from patent US20240148821A1, “PHARMACEUTICAL USE OF CYCLIC PEPTIDE COMPOUND” (CHUGAI SEIYAKU KABUSHIKI KAISHA, priority 2021, published 2024).
Numbered stars: 1 amine (or outer) side, 2 acyl side, 3 side chain; on linkers, the order of the positions; unused ones are H or OH. Bridge positions count the residues as written; N and C are the ends. Square brackets hold non-standard residues; d marks the D form. Peptide text beside a SMILES is read from it. * marks the point of attachment. hPhe(3,5-F2-4-CF3) = N[C@@H](CCc1cc(F)c(C(F)(F)F)c(F)c1)C(=O)O; hPhe(3-Cl-4-CF3) = N[C@@H](CCc1ccc(C(F)(F)F)c(Cl)c1)C(=O)O; hPhe(3-F,4-CF3) = N[C@@H](CCc1ccc(C(F)(F)F)c(F)c1)C(=O)O; X20 = Cc1cncc(C[C@@H](C(=O)[*:2])N(C)[*:1])c1; NMePhe(4-Cl) = CN[C@@H](Cc1ccc(Cl)cc1)C(=O)O; NMePhe(3-Me) = CN[C@@H](Cc1cccc(C)c1)C(=O)O; NMePhe(4-Me) = CN[C@@H](Cc1ccc(C)cc1)C(=O)O; NMedβ3hAla = C[C@H](CC(=O)[*:2])N(C)[*:1]; NMeGly(cPent) = CN[C@H](C(=O)O)C1CCCC1; NMeCha = CN[C@@H](CC1CCCCC1)C(=O)O; NMeAhp(2) = CCCCC[C@H](NC)C(=O)O; NMeChg = CN[C@H](C(=O)O)C1CCCCC1; NMeI = CC[C@H](C)[C@H](NC)C(=O)O; NMeD = CN[C@@H](CC(=O)O)C(=O)O; NMeL = CN[C@@H](CC(C)C)C(=O)O; NMeV = CN[C@H](C(=O)O)C(C)C; d(β3hA) = C[C@@H](N)CC(=O)O; Azetidin(1-yl) = C1CN(*)C1; NMeA = CN[C@@H](C)C(=O)O; NMeAib = CNC(C)(C)C(=O)O; Piperidide = C1CCN(*)CC1; Ac5c = NC1(C(=O)O)CCCC1; Aze = O=C(O)[C@@H]1CCN1; Sar = CNCC(=O)O

How the values were obtained:
[1] = target: protein-protein interaction between Kras and SOS1 (biotin-tagged human Kras loaded with GDP, His-tagged human SOS1) (Homo sapiens (Human), UniProt P01116, G12D); test: Protein-protein interaction inhibition between Kras and SOS1 (KrasG12D-SOS PPI) using AlphaScreen; assay type: biochemical; details: AlphaScreen; biotin-tagged human Kras loaded with GDP, His-tagged human SOS1; read-out: KRAS G12D-SOS PPI IC50;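 further: kras produced in E. coli, Ni-coupled donor beads and streptavidin acceptor beads, excitation 680 nm with emission detected at 520–620 nm via singlet oxygen transfer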
[2] = system: Human pancreatic cancer cell line AsPC-1 (G12D mutation Kras); test: AsPC-1 cell growth inhibition (AsPC-1 CGI); assay type: cell-based; details: read-out: AsPC-1 cell growth inhibition, 50% growth inhibitory concentration (IC50 value); 96 hours, CellTiter-Glo, values classified in ranges
Description: Test compounds were serially dilated with dimethyl sulfoxide, and 200 nL was then dispensed to a U-bottom 96-well plate using Labcyte Echo. […] The cell suspension was dispensed to a. plate containing a test compound at 100 μL per well and incubated at 37° C. in a 5% carbon dioxide gas incubator. 96 hours later, 80 μL of CellTiter-Glo (Promega) was added to each well and fluorescence was measured.

CC[C@H](C)[C@@H]1NC(=O)[C@H](CC(C)C)N(C)C(=O)C[C@@H](C)N(C)C(=O)[C@H](CC(C)C)NC(=O)C(C)(C)N(C)C(=O)[C@H](C(C)C)NC(=O)[C@H](CCc2ccc(C(F)(F)F)c(F)c2)NC(=O)CN(C)C(=O)[C@H](Cc2ccc(Cl)cc2)N(C)C(=O)CN(C)C(=O)CN(C)C1=O [Compound 1054] (cyclo(I[Sar][Sar][NMePhe(4-Cl)][Sar][hPhe(3-F,4-CF3)]V[NMeAib]L[NMedβ3hAla][NMeL]))
IC50 [1]: 120 nM
IC50 [2]: > 500 nM

CC[C@H](C)[C@@H]1NC(=O)[C@H](C)N(C)C(=O)C[C@@H](C)NC(=O)[C@H](C(C)C)N(C)C(=O)C2(CCCC2)NC(=O)[C@@H]2CCCN2C(=O)[C@H](CCc2ccc(C(F)(F)F)c(Cl)c2)NC(=O)CN(C)C(=O)[C@H](CC2CCCCC2)N(C)C(=O)[C@@H]2CCCN2C(=O)CN(C)C1=O [Compound 1056] (cyclo([Ac5c][NMeV][d(β3hA)][NMeA]I[Sar]P[NMeCha][Sar][hPhe(3-Cl-4-CF3)]P))
IC50 [1]: 18 nM
IC50 [2]: > 500 nM

CCCCC[C@H]1C(=O)N[C@@H]([C@@H](C)CC)C(=O)N[C@@H](C)C(=O)N2CC[C@H]2C(=O)N(C)[C@@H](Cc2ccc(C)cc2)C(=O)N(C)CC(=O)N[C@@H](CCc2ccc(C(F)(F)F)c(Cl)c2)C(=O)N2CCC[C@H]2C(=O)NC2(CCCC2)C(=O)N(C)[C@@H](C2CCCC2)C(=O)N(C)[C@H](C(=O)N(C)C)CC(=O)N1C [Compound 1059] ([NMeAhp(2)]IA[Aze][NMePhe(4-Me)][Sar][hPhe(3-Cl-4-CF3)]P[Ac5c][NMeGly(cPent)][NMeD]-NMe2; lactam N-11)
IC50 [1]: 0.64 nM
IC50 [2]: ≤ 20 nM

CC[C@H](C)[C@@H]1NC(=O)[C@H](CC(C)C)N(C)C(=O)C[C@@H](C(=O)N2CCC2)N(C)C(=O)[C@H](C2CCCC2)N(C)C(=O)C2(CCCC2)NC(=O)[C@@H]2CCCN2C(=O)[C@H](CCc2cc(F)c(C(F)(F)F)c(F)c2)NC(=O)CN(C)C(=O)[C@H](CC2CCCCC2)N(C)C(=O)[C@@H]2CCN2C(=O)[C@H](C)N(C)C1=O [Compound 1070] ([NMeL]I[NMeA][Aze][NMeCha][Sar][hPhe(3,5-F2-4-CF3)]P[Ac5c][NMeGly(cPent)][NMeD]-{Azetidin(1-yl)}; lactam N-11)
IC50 [1]: 0.91 nM
IC50 [2]: ≤ 20 nM

CC[C@H](C)[C@@H]1NC(=O)[C@H](CC(C)C)N(C)C(=O)C[C@@H](C)N(C)C(=O)[C@H](CC(C)C)NC(=O)C(C)(C)N(C)C(=O)[C@H](CC(C)C)NC(=O)[C@H](CCc2ccc(C(F)(F)F)c(Cl)c2)NC(=O)CN(C)C(=O)[C@H](CC2CCCCC2)N(C)C(=O)CN(C)C(=O)CN(C)C1=O [Compound 1076] (cyclo(I[Sar][Sar][NMeCha][Sar][hPhe(3-Cl-4-CF3)]L[NMeAib]L[NMedβ3hAla][NMeL]))
IC50 [1]: 19 nM
IC50 [2]: > 500 nM

CC[C@H](C)[C@@H]1NC(=O)[C@H](CC(C)C)N(C)C(=O)C[C@@H](C(=O)N(C)C)N(C)C(=O)[C@H]([C@@H](C)CC)N(C)C(=O)C2(CCCC2)NC(=O)[C@@H]2CCCN2C(=O)[C@H](CCc2cc(F)c(C(F)(F)F)c(F)c2)NC(=O)CN(C)C(=O)[C@H](Cc2ccc(C)cc2)N(C)C(=O)[C@@H]2CCN2C(=O)[C@H](C)N(C)C1=O [Compound 1080] ([NMeL]I[NMeA][Aze][NMePhe(4-Me)][Sar][hPhe(3,5-F2-4-CF3)]P[Ac5c][NMeI][NMeD]-NMe2; lactam N-11)
IC50 [1]: 1 nM
IC50 [2]: ≤ 20 nM

CC[C@H](C)[C@@H]1NC(=O)[C@H](C)N(C)C(=O)C[C@@H](C)NC(=O)[C@H](C2CCCC2)N(C)C(=O)C2(CCCC2)NC(=O)[C@@H]2CCCN2C(=O)[C@H](CCc2ccc(C(F)(F)F)c(Cl)c2)NC(=O)CN(C)C(=O)[C@H](Cc2cccc(C)c2)N(C)C(=O)[C@@H]2CCCN2C(=O)CN(C)C1=O [Compound 1083] (cyclo([Ac5c][NMeGly(cPent)][d(β3hA)][NMeA]I[Sar]P[NMePhe(3-Me)][Sar][hPhe(3-Cl-4-CF3)]P))
IC50 [1]: 19 nM
IC50 [2]: > 500 nM

CC[C@H](C)[C@@H]1NC(=O)[C@H](CC(C)C)N(C)C(=O)C[C@@H](C)N(C)C(=O)[C@H](C(C)C)NC(=O)C(C)(C)N(C)C(=O)[C@H](CC(C)C)NC(=O)[C@H](CCc2ccc(C(F)(F)F)c(F)c2)NC(=O)CN(C)C(=O)[C@H](Cc2ccc(Cl)cc2)N(C)C(=O)CN(C)C(=O)CN(C)C1=O [Compound 1084] (cyclo(I[Sar][Sar][NMePhe(4-Cl)][Sar][hPhe(3-F,4-CF3)]L[NMeAib]V[NMedβ3hAla][NMeL]))
IC50 [1]: 53 nM
IC50 [2]: > 500 nM

CC[C@H](C)[C@@H]1NC(=O)[C@H](CC(C)C)N(C)C(=O)C[C@@H](C(=O)N2CCCCC2)N(C)C(=O)[C@H](C2CCCCC2)N(C)C(=O)C2(CCCC2)NC(=O)[C@H](Cc2cncc(C)c2)N(C)C(=O)[C@H](CCc2ccc(C(F)(F)F)c(Cl)c2)NC(=O)CN(C)C(=O)[C@H](CC2CCCCC2)N(C)C(=O)CN(C)C(=O)CN(C)C1=O [Compound 1087] ([NMeL]I[Sar][Sar][NMeCha][Sar][hPhe(3-Cl-4-CF3)][X20][Ac5c][NMeChg][NMeD]-Piperidide; lactam N-11)
IC50 [1]: 15 nM
IC50 [2]: > 500 nM
